Assay results as given in patent publication US8759339B2, “Pyrrolo[2,1-c][1,4]naphthodiazepine linked piperazine compounds and a process for the preparation thereof” (Council of Scientific & Industrial Research, priority 2011, dated 2014).
Like-named read-outs stand apart in the source and are kept apart here.

Tests used:
[1] = system: COS-1 kidney cancer cell line; assay: In vitro anticancer activity, MTT assay; assay type: cell-based; conditions: for in-vitro cytotoxicity in kidney cancer cell line (COS-1): result in words; for IC50: COS-1, range over the listed compounds, exposure period of at least 48 hrs, read-out: IC50 against kidney cancer cell lines
Protocol: (§1) In vitro biological activity studies were carried out at the pharmacology division, IICT, Hyderabad. The compounds were evaluated for in vitro anticancer activity against eight tumour cell lines derived from […] cancer types (breast, lung, liver, skeletal, kidney, prostrate, small intestine) as shown in Table 2. For each compound, dose response curves for each cell line were measured at a minimum of five concentrations at 10 fold dilutions. A protocol of 48 h continuous drug exposure was used and a MTT assay was used to estimate cell viability or growth. The concentration causing 50% inhibition (IC50) compared with the control was calculated. Some of the compounds have been evaluated for their in vitro cytotoxicity in eight cell lines from seven human cancer types. The results are expressed as IC50 determined relative to that of untreated control cells (Table-2).

[2] = system: IEC-6 small intestine cell line; assay: In vitro anticancer activity, MTT assay; assay type: cell-based; conditions: for in-vitro cytotoxicity in small intestine cancer cell line (IEC-6): result in words
Protocol: as §1

[3] = In vitro anticancer activity, MTT assay; assay type: cell-based; conditions: kidney cancer cell line, MTT, 48 h continuous drug exposure
Protocol: as §1

[4] = system: L-6 skeletal cancer cell line; assay: In vitro anticancer activity, MTT assay; assay type: cell-based; conditions: result in words
Protocol: as §1

[5] = system: L-6; assay: In vitro anticancer activity, MTT assay; assay type: cell-based; conditions: skeletal cancer cell line; MTT, 48 h continuous drug exposure
Protocol: as §1

[6] = system: calf thymus DNA (CT-DNA); assay: Thermal denaturation studies with duplex-form calf thymus DNA; assay type: binding; conditions: [PND]/[DNA] molar ratio 1:5, CT-DNA 100 μM, ligand 20 μM, aqueous sodium phosphate buffer pH 7; for ΔTm after incubation at 37° C. for 0 hr: 0 hr at 37° C.; for ΔTm after incubation at 37° C. for 18 hrs: 18 hrs at 37° C.
Protocol: Compounds have been subjected to thermal denaturation studies with duplex-form calf thymus DNA (CT-DNA) using an modification of a reported procedure (Newman, M. S. Carcinog-compr. Surv. 1976, 1, 203; (b) Hecht, S. S.; Loy, M.; Hoffman, Carcinog-compr. Surv. 1976, 1, 325). Working solutions in aqueous buffer (10 mM NaH2PO4/Na2HPO4, 1 mM Na2EDTA, pH 7.00+0.01) containing CT-DNA (100 μm in phosphate) and the PND (pyrrolo naphtha diazepine) (20 μm) have been prepared by addition of concentrated PND (pyrrolo naphtha diazepine) solutions in DMSO to obtain a fixed [PND]/[DNA] molar ratio of 1:5. The DNA-PND (pyrrolo naphtha diazepine) solutions have been incubated at 37° C. for 0 and 18 h prior to analysis. Samples have been monitored at 260 nm using a Beckman DU-800 spectrophotometer fitted with high performance temperature controller, and heated at 1° C. min in the 40-110° C. range. DNA helix→coil transition temperatures (Tm) have been obtained from the maxima in the d(A260)/dT derivative plots. Drug-induced alterations in DNA melting behavior are given by: ΔTm=Tm(DNA+PND)−Tm(DNA alone), where the Tm value for the PND-free CT-DNA is 69.1±0.01.
The DNA binding activity for these novel substituted piperazine linked pyrrolo naphtho diazepine hybrids has been examined by thermal denaturation studies using calf thymus (CT) DNA. […] The data for some of the compounds are included in Table 1 for comparison.

[7] = system: HEPG2 liver cancer cell line; assay: In vitro anticancer activity, MTT assay; assay type: cell-based, human; conditions: for in-vitro cytotoxicity in liver cancer cell line (HEPG2): result in words
Protocol: as §1

[8] = system: A549 lung cancer cell line; assay: In vitro anticancer activity, MTT assay; assay type: cell-based, human; conditions: for in-vitro cytotoxicity in lung cancer cell line (A549): result in words
Protocol: as §1

[9] = system: NCIH460 large cell lung cancer cell line; assay: In vitro anticancer activity, MTT assay; assay type: cell-based, human; conditions: for IC50: large cell lung cancer cell line, MTT, 48 h continuous drug exposure; for in-vitro cytotoxicity in large cell lung cancer cell line (NCIH460): result in words
Protocol: as §1

[10] = system: PC-3 prostrate cancer cell line; assay: In vitro anticancer activity, MTT assay; assay type: cell-based, human; conditions: for IC50: prostrate cancer cell line, MTT, 48 h continuous drug exposure; for in-vitro cytotoxicity in prostrate cancer cell line (PC-3): result in words
Protocol: as §1

[11] = system: MCF7 breast cancer cell line; assay: In vitro anticancer activity, MTT assay; assay type: cell-based, human; conditions: for IC50: breast cancer cell line, MTT, 48 h continuous drug exposure; for in-vitro cytotoxicity in breast cancer cell line (MCF-7): result in words
Protocol: as §1

[12] = IEC-6, range over the listed compounds, exposure period of at least 48 hrs, read-out: IC50 against small intestine cancer cell lines
[13] = IEC-6, small intestine cell line, MTT, 48 h continuous drug exposure, read-out: IC50 IEC-6
[14] = Homo sapiens, HepG2, liver cancer cell line, MTT, 48 h continuous drug exposure, read-out: IC50 HEPG2
[15] = Homo sapiens, HepG2, range over the listed compounds, exposure period of at least 48 hrs, read-out: IC50 against liver cancer cell lines
[16] = Homo sapiens, A549, lung cancer cell line, MTT, 48 h continuous drug exposure, read-out: IC50 A549
[17] = Homo sapiens, A549, range over the listed compounds, exposure period of at least 48 hrs, read-out: IC50 against lung cancer cell lines

| Molecule | in-vitro cytotoxicity in kidney cancer cell line (COS-1) [1] | in-vitro cytotoxicity in small intestine cancer cell line (IEC-6) [2] | in-vitro cytotoxicity in skeletal cancer cell line (L-6) [4] | IC50 [5] [nM] | ΔTm after incubation at 37° C. for 0 hr [6] [°C] | ΔTm after incubation at 37° C. for 18 hrs [6] [°C] | in-vitro cytotoxicity in liver cancer cell line (HEPG2) [7] | in-vitro cytotoxicity in lung cancer cell line (A549) [8] | in-vitro cytotoxicity in large cell lung cancer cell line (NCIH460) [9] | in-vitro cytotoxicity in prostrate cancer cell line (PC-3) [10] | in-vitro cytotoxicity in breast cancer cell line (MCF-7) [11] | IC50 [1] [nM] | IC50 [2, 12] [nM] | IC50 [2, 13] [nM] | IC50 ([3]; COS-1) [nM] | IC50 [7, 14] [nM] | IC50 [7, 15] [nM] | IC50 [8, 16] [nM] | IC50 [8, 17] [nM] | IC50 ([9]; Homo sapiens, NCI-H460) [nM] | also measured |
| --- | --- | --- | --- | --- | --- | --- | --- | --- | --- | --- | --- | --- | --- | --- | --- | --- | --- | --- | --- | --- | --- |
| 8-Methoxy-9-(2-chloroethoxy)-(13aS)-1,2,3,13a-tetrahydro-5H-pyrrolo[2,1-c][1,4]naphthodiazepine-5-one [1a] | exhibiting in-vitro cytotoxicity | exhibiting in-vitro cytotoxicity | exhibiting in-vitro cytotoxicity | 1080 | 6.2 | 7.6 | exhibiting in-vitro cytotoxicity | exhibiting in-vitro cytotoxicity | exhibiting in-vitro cytotoxicity | exhibiting in-vitro cytotoxicity | exhibiting in-vitro cytotoxicity | – | – | – | – | – | – | – | – | – | IC50 ([2]; small intestine cell line, MTT, 48 h continuous drug exposure, read-out: IC50 IEC-6): 20 nM; IC50 ([3]; read-out: IC50 COS-1): 3060 nM; IC50 ([7]; liver cancer cell line, MTT, 48 h continuous drug exposure, read-out: IC50 HEPG2): 520 nM; IC50 ([8]; lung cancer cell line, MTT, 48 h continuous drug exposure, read-out: IC50 A549): 20 nM; IC50 [9]: 300 nM; IC50 [10]: 390 nM; IC50 [11]: 50 nM |
| CCN1CCN(CCOc2cc3cc4c(cc3cc2OC)N=C[C@@H]2CCCN2C4=O)CC1 [15a, 9-Methoxy-8-[2-(4-ethylpiperazino)ethoxy]-(13aS)-1,2,3,13a-tetrahydro-5H-pyrrolo[2,1-c][1,4]naphthodiazepin-5-one] | exhibiting in-vitro cytotoxicity | exhibiting in-vitro cytotoxicity | exhibiting in-vitro cytotoxicity | 1870 | 6.1 | 7.2 | exhibiting in-vitro cytotoxicity | exhibiting in-vitro cytotoxicity | exhibiting in-vitro cytotoxicity | exhibiting in-vitro cytotoxicity | exhibiting in-vitro cytotoxicity | 800 to 4320 | 10 to 5840 | 130 | 3660 | 200 | 20 to 7320 | 540 | 20 to 11900 | 1250 | IC50 ([10]; Homo sapiens): 410 nM; IC50 ([11]; Homo sapiens, MCF7): 40 nM |
| COc1cc2cc3c(cc2cc1OCCN1CCN(c2ccccn2)CC1)C(=O)N1CCC[C@H]1C=N3 [23a, 9-Methoxy-8-(2-[4-(2-pyridyl)piperazino]ethoxy)-(13aS)-1,2,3,13a-tetrahydro-5H-pyrrolo[2,1-c][1,4]naphthodiazepin-5-one] | exhibiting in-vitro cytotoxicity | exhibiting in-vitro cytotoxicity | exhibiting in-vitro cytotoxicity | 740 | 5.0 | 6.8 | exhibiting in-vitro cytotoxicity | exhibiting in-vitro cytotoxicity | exhibiting in-vitro cytotoxicity | exhibiting in-vitro cytotoxicity | exhibiting in-vitro cytotoxicity | 800 to 4320 | 10 to 5840 | 10 | 4320 | 40 | 20 to 7320 | 1990 | 20 to 11900 | 110 | IC50 ([10]; Homo sapiens): 100 nM; IC50 ([11]; Homo sapiens, MCF7): 20 nM |
